The values below come from paper PMC7948422, “Repurposing p97 inhibitors for chemical modulation of the bacterial ClpB–DnaK bichaperone system” (The Journal of Biological Chemistry, 2020).

One assay addresses monomeric ClpB. More on the design: method as in PMID 10982797. The note with it: read-out: Kd of monomeric ClpB toward ATP; cited from earlier work.
For a further assay, the target named is T1, wt ClpB (Escherichia coli, UniProt P63284).
T1 construct: made in house
The assay can be described thus: Surface plasmon resonance, immobilized wt ClpB. The assay is classed as binding. The following applies: SPR, preliminary; read-out: dissociation constant, control titration of immobilized ClpB. On the procedure: ClpB, DnaK, and the NBD of DnaK were extensively dialyzed against the SPR buffer (20-mM Hepes, pH 7.4, 150-mM NaCl, 20-mM MgCl2, 1-mM EDTA, 1-mM DTT). After dialysis, the protein concentration was determined by the Bradford method. The DBeQ–protein interactions were studied using a Biacore T200 instrument (GE Healthcare) at 25 °C. The proteins were diluted to 300 μg/ml in 10-mM sodium acetate buffer (pH 5 for ClpB DnaK or pH 4 for NBD) and immobilized on HC1500M sensor chips (Xantec) by standard amine coupling chemistry as described previously ([70]). A reference flow cell was created by ethyl(dimethylaminopropyl) carbodiimide/N-hydroxysuccinimide activation followed by quenching with 1 M ethanolamine (pH 9.0). Solvent correction curves were obtained at the beginning and end and after every 50 injection cycles by injecting varying DMSO concentrations (4.0, 4.4, 4.6, 4.8, 5.0, 5.2, 5.4, and 5.9% [v/v]). All experiments were performed using a flow rate of 30 μl/min.
Binding isotherms were obtained with the ligand diluted to different concentrations in the SPR running buffer HBSMTD (20-mM Hepes, pH 7.4, 140-mM NaCl, 20-mM MgCl2, 5% (v/v) DMSO, 0.005% (v/v) Tween-20). Replicate injections were performed for all samples, and a buffer-only injection was performed for every 12 injection cycles. To test the structural integrity of ClpB after immobilization on the sensor chips, we performed control titrations with ATPγS and adenosine. The dissociation constants determined from those experiments were ∼20 μM for ATPγS and ∼2 mM for adenosine. […] Moreover, the immobilized ClpB discriminated between a nucleotide analog and a nucleoside, which indicated an adequate structural integrity of ClpB on the sensor chips.
The resulting sensorgrams were analyzed using Biacore T200 Evaluation Software v3.0 according to the following procedure. Solvent correction curves were generated and applied to all data sets, and all sensorgrams were double-referenced by subtracting the most recent buffer blank injection. The signal immediately before injection stop of these corrected sensorgrams was treated as the binding response. GraphPad Prism was used for nonlinear least-squares fitting of the model assuming either noncooperative or cooperative binding of DBeQ to DnaK and ClpB, respectively.

The target of the next assay is T2, E. coli ClpB (Escherichia coli, UniProt P63284).
T2 construct: made in house
T2 sequence (P63284 whole entry): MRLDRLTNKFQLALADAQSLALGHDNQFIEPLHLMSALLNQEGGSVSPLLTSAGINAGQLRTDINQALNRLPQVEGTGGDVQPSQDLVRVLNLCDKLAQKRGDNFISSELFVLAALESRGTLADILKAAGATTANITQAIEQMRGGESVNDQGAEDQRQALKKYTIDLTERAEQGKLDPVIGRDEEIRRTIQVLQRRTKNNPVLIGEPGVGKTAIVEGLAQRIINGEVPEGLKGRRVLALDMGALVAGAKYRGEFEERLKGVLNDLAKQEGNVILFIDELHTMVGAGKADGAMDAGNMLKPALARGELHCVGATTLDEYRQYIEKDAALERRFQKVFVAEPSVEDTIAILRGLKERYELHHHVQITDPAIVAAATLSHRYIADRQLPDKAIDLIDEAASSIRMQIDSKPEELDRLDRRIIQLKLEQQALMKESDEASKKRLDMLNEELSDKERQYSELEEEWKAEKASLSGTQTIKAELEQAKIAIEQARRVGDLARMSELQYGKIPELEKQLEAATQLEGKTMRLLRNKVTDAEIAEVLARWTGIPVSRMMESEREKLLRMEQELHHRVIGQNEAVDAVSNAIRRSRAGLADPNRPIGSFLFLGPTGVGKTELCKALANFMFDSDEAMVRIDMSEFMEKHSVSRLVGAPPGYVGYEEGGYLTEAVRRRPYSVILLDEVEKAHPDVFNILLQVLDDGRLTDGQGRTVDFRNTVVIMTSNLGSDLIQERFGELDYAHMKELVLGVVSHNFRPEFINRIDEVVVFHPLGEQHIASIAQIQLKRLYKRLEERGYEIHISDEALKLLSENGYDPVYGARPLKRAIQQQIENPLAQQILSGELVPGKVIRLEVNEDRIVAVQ
It is filed as biochemical. The following applies: 100 μM compound, 37 °C; for inhibition of the basal ClpB ATPase: no casein; for inhibition of the ClpB ATPase in the presence of casein: with κ-casein. As to the method: To determine the ATPase activity, ClpB was diluted to 28 μg/ml (49-nM hexamer) in buffer C (50-mM Tris-HCl, pH 7.4, 20-mM MgCl2, 1-mM EDTA, 0.5-mM tris(2-carboxyethyl)phosphine [TCEP]). In some experiments, the ClpB solution was supplemented with 17.4 μg/ml (10 μM) κ-casein. The ClpB aliquots (18 μl) were mixed with 1 μl of the investigated compounds at different concentrations in 100% DMSO or with DMSO as a control. A sample without ClpB was used as a baseline control. After a 10-min preincubation at 37 or 45 °C, the ATP hydrolysis reaction was initiated by adding 1 μl of 100-mM ATP. The samples were incubated for 60 min (basal ClpB activity in the absence of κ-casein) or 15 min (in the presence of κ-casein) at 37 °C or 30 min at 45 °C in the absence of casein. For the E678Q ClpB variant, the incubation time in the presence of κ-casein was 60 min. After incubation, 15 μl of each sample was mixed with 200 μl of the ammonium molybdate/malachite green reagent ([67]) dispensed into a 96-well plate, followed by an addition of 30 μl of 34% sodium citrate ([68]). The plate was agitated inside a Synergy H1 reader (BioTek, Winooski, VT) for 15 min at room temperature, and the samples’ absorbance was measured at 630 nm. The readouts for ClpB-containing samples were corrected for absorbance of samples without ClpB, to account for nonenzymatic production of inorganic phosphate. A standard curve obtained with different inorganic phosphate concentrations was used to determine the amount of phosphate produced from ATP in the presence of ClpB.

The test system of the next assay is p97. The arrangement: method as in PMID 25685910. The following applies: cited from earlier work.

Structures are written as SMILES. Entries after “also recorded” stand apart in the source; their conditions may differ.

T1 sequence (P63284 whole entry): as above

`Nc1ncnc2c1ncn2[C@@H]1O[C@H](COP(=O)(O)OP(=O)(O)OP(=O)(O)O)[C@@H](O)[C@H]1O` [ATP]: the Kd on monomeric ClpB is over 1000 µM.
For the compound `Nc1ncnc2c1ncn2[C@@H]1O[C@H](CO[P@](=O)(O)O[P@](=O)(O)O[P@@](=O)(O)S)[C@@H](O)[C@H]1O` [ATPγS], the Kd on wt ClpB was about 20 µM.
As a reminder, the IC50 is the concentration needed to halve the response being measured. With `COc1cccc2c(NCc3ccccc3)nc(-n3c(N)nc4ccccc43)nc12` [ML240], at E. coli ClpB, the “inhibition of the basal ClpB ATPase” value is recorded as “None of the above compounds, except C3, showed a significant inhibition”; the “inhibition of the ClpB ATPase in the presence of casein” value is “loss of potency toward ClpB; also recorded: only C3 and DBeQ strongly inhibited”. Besides, the concentration for half-maximal inhibition (IC50) in the assay on p97 was about 0.1 µM.
As to `Cc1cc(OCc2nnc(SC3CCCC3)n2-c2cccnc2)ccc1-c1ccc(S(C)(=O)=O)cc1` [NMS-873], at E. coli ClpB, the “inhibition of the basal ClpB ATPase” value is given as “None of the above compounds, except C3, showed a significant inhibition”; the “inhibition of the ClpB ATPase in the presence of casein” value is “only C3 and DBeQ strongly inhibited”. Also, in the assay on p97, the IC50 was about 0.02 µM.
For `Nc1ncnc2c1ncn2[C@@H]1O[C@H](CO)[C@@H](O)[C@H]1O` [adenosine], the Kd on wt ClpB was about 2000 µM.
